Experimental data as given in paper PMC5137160, “Optical imaging of MMP-12 active form in inflammation and aneurysm” (Scientific Reports, 2016).

What was measured:
ADAMTS-5 = biological target: T1, ADAMTS-5 (Homo sapiens, UniProt Q9UNA0); assay: Metalloprotease inhibition assay (Ki); format: biochemical
T1 sequence (Q9UNA0 262-930): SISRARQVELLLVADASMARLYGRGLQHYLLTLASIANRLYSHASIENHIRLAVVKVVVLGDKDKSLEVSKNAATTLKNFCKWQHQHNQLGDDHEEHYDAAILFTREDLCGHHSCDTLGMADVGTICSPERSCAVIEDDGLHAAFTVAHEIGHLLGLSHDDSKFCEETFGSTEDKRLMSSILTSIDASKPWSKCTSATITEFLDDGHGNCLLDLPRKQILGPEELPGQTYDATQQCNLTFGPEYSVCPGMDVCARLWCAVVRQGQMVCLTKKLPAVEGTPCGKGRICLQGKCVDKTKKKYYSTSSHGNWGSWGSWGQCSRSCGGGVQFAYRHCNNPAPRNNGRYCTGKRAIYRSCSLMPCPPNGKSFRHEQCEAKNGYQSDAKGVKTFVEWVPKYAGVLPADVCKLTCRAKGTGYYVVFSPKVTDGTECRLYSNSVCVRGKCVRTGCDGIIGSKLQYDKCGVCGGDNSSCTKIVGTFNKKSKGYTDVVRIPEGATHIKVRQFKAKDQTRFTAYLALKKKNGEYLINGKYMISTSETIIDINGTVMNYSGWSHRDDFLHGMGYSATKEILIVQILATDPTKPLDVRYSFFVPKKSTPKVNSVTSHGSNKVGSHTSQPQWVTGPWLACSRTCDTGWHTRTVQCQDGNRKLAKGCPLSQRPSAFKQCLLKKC

MMP-12 [1] = tested on: MMP-12; parameters: method as in PMID 21212406; settings: high fat-fed apoE-/- mice ref 3; cited from earlier work
hMMP-1 = biological target: T2, hMMP-1 (Homo sapiens, UniProt P03956); assay: MMP inhibition assay (Ki); format: biochemical
T2 construct: purchased R&D Systems (Minneapolis, MN)
T2 sequence (P03956 100-469): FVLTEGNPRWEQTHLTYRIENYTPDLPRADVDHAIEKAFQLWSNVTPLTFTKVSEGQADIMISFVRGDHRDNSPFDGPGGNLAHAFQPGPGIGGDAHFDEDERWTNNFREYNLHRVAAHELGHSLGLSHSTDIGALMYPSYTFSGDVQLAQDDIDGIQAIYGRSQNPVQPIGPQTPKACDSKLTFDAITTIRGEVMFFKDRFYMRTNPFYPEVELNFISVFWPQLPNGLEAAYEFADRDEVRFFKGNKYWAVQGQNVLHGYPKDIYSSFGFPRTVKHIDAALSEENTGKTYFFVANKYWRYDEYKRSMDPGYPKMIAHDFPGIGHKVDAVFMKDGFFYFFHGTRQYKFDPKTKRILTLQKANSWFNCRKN
Method: (§1) Human MMP-8, -9, -12 and -13 were produced in the laboratory. Other MMPs were purchased from R&D Systems (Minneapolis, MN). MMP inhibition assays were carried out as previously described. Pro-MMPs were pre-activated by p-aminophenylmercuric acetate following the method described by R&D Systems. Titration experiments were carried out to determine active enzyme concentration for each MMP prior to the assay. For each probe, the percentage of inhibition was determined from five different concentrations in triplicates, chosen to reach a range of 20–80% inhibition. Ki values were determined using the method proposed by Horovitz and Leviski[45].

hMMP-3 = biological target: T3, hMMP-3 (Homo sapiens, UniProt P08254); assay: MMP inhibition assay (Ki); format: biochemical
T3 construct: purchased R&D Systems (Minneapolis, MN)
Method: as §1

hMMP-14 = biological target: T4, hMMP-14 (Homo sapiens, UniProt P50281); assay: MMP inhibition assay (Ki); format: biochemical
T4 construct: purchased R&D Systems (Minneapolis, MN)
Method: as §1

hMMP-9 = biological target: T5, hMMP-9 (Homo sapiens, UniProt P14780); assay: MMP inhibition assay (Ki); format: biochemical
T5 construct: made in house
Method: as §1

hMMP-7 = biological target: T6, hMMP-7 (Homo sapiens, UniProt P09237); assay: MMP inhibition assay (Ki); format: biochemical
T6 construct: purchased R&D Systems (Minneapolis, MN)
T6 sequence (P09237 95-267): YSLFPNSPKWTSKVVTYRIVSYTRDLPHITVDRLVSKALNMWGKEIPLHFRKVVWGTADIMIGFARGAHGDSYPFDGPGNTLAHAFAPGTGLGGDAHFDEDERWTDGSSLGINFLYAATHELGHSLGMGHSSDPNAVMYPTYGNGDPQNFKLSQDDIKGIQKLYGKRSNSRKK
Method: as §1

hMMP-10 = biological target: T7, hMMP-10 (Homo sapiens, UniProt P09238); assay: MMP inhibition assay (Ki); format: biochemical
T7 construct: purchased R&D Systems (Minneapolis, MN)
Method: as §1

hMMP-2 = biological target: T8, hMMP-2 (Homo sapiens, UniProt P08253); assay: MMP inhibition assay (Ki); format: biochemical
T8 construct: purchased R&D Systems (Minneapolis, MN)
T8 sequence (P08253 110-660): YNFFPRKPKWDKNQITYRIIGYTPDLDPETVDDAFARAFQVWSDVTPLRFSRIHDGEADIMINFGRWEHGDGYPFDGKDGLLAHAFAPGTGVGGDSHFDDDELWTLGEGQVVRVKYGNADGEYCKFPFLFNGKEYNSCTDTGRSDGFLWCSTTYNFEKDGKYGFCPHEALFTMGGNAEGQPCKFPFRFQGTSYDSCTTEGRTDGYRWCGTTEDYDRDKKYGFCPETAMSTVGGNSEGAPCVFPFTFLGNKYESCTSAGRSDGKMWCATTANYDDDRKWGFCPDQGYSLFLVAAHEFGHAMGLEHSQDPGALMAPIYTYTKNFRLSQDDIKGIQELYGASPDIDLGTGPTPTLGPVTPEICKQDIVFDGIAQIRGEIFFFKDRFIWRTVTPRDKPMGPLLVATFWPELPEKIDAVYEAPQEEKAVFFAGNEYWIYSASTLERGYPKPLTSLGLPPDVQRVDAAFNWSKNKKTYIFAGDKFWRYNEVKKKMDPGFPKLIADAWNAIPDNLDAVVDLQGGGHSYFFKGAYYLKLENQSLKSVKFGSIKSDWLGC
Method: as §1

hMMP-8 = biological target: T9, hMMP-8 (Homo sapiens, UniProt P22894); assay: MMP inhibition assay (Ki); format: biochemical
T9 construct: made in house
Method: as §1

hMMP-13 = biological target: T10, hMMP-13 (Homo sapiens, UniProt P45452); assay: MMP inhibition assay (Ki); format: biochemical
T10 construct: made in house
Method: as §1

hMMP-12 = assay: MMP inhibition assay (Ki); format: biochemical, human
Method: as §1

TACE = TACE (Homo sapiens, UniProt P78536); assay: Metalloprotease inhibition assay (Ki); format: biochemical
MMP-12 [2] = biological target: T11, MMP-12 (Mus musculus, UniProt P34960); assay: Co-immunostaining of carotid artery sections with probe, fluorescence microscopy; parameters: species or system mice
T11 construct: from tissue; host or cells: CaCl2-induced aneurysmal left carotid artery of apoE-deficient mice (in vivo imaging and cryostat sections)
Method: Hematoxylin and eosin (H&E) staining and immunostaining of tissues were performed according to standard protocols on 5-μm-thick cryostat sections. For immunostaining, primary antibodies included anti-MMP-12 (sc-30072, Santa Cruz Biotechnology, Dallas, TX), anti-CD68 (AbD serotec, Raleigh, NC), anti-F4/80 (Cedarlane, Burlington, NC) and anti-CD31 (BD Pharmingen, San Jose, CA). Isotype-matched antibodies were used as controls. For co-immunostaining, tissue sections were fixed with acetone, and stained with the antibody followed by probe 2. Nuclei were stained with DAPI using ProLong® Gold Antifade Mountant with DAPI (Molecular Probes, Eugene, OR). The slides were photographed using a Spot RT3 camera (Diagnostic Instruments, Sterling Heights, MI) and a Zeiss Axiophot fluorescence microscope (Carl Zeiss Microscopy GmbH, Jena, Germany).

TACE, sequence (P78536 215-824): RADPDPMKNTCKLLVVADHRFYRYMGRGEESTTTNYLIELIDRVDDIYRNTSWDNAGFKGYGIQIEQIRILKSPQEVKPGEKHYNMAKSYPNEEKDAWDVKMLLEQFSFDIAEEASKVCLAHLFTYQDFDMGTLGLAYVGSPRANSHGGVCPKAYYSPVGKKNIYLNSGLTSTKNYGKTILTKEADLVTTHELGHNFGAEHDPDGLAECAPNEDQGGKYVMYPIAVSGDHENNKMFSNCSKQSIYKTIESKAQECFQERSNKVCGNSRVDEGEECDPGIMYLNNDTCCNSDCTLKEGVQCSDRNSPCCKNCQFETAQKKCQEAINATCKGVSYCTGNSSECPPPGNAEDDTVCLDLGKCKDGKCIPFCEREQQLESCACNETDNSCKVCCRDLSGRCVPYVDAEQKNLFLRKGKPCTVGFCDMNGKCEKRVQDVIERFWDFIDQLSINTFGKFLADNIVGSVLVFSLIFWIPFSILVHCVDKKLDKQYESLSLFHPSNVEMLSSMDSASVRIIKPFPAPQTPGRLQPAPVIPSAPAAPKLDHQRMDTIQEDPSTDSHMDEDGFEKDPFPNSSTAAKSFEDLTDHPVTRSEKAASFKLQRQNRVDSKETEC
T7 sequence (P09238 99-476): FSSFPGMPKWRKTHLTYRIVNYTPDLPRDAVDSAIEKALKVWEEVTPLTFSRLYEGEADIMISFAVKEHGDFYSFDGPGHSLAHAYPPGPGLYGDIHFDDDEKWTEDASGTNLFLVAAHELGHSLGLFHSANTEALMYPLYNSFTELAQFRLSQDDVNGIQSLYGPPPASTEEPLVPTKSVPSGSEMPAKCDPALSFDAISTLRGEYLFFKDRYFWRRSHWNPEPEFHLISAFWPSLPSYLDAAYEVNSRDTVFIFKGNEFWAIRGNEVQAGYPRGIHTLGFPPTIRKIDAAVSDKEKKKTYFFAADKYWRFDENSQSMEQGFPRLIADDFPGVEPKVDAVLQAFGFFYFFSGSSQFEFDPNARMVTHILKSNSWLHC
T5 sequence (P14780 94-707): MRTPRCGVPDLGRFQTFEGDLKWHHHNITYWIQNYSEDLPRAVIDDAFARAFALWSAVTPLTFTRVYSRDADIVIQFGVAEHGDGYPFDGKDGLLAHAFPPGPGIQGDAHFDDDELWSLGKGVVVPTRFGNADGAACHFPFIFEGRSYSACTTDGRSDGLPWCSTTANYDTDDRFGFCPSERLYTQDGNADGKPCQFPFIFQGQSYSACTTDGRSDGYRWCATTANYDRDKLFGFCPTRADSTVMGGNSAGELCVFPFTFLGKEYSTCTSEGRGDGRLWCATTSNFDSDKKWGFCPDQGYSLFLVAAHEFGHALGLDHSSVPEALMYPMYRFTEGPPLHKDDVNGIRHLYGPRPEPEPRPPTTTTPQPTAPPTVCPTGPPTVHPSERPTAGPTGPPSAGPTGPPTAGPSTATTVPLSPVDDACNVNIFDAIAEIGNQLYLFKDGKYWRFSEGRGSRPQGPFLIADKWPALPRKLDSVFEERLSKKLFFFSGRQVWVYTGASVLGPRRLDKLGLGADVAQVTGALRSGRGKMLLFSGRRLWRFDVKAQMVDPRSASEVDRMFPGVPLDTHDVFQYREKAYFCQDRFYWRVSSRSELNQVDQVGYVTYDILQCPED
T3 sequence (P08254 100-477): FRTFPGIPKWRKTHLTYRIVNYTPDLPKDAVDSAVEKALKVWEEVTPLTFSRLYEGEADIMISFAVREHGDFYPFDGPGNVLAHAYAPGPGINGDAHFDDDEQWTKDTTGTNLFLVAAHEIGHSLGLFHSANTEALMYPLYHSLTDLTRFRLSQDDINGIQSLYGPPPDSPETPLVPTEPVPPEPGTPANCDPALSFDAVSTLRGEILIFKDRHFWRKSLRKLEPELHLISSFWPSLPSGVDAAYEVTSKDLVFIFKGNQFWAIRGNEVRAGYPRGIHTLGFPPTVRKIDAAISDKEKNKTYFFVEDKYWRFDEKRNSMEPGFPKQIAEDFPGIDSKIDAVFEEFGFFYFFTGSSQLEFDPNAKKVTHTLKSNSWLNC
T9 sequence (P22894 101-467): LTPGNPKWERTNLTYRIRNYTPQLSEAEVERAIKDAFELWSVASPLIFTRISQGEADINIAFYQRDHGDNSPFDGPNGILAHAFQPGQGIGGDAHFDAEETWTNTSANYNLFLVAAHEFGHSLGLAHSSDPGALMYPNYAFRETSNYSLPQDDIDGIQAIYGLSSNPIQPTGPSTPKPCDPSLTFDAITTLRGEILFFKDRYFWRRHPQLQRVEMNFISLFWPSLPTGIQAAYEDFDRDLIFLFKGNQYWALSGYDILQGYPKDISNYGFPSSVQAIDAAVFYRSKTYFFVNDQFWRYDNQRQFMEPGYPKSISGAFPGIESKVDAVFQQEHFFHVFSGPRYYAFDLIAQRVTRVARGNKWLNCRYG
T11 sequence (P34960 110-473): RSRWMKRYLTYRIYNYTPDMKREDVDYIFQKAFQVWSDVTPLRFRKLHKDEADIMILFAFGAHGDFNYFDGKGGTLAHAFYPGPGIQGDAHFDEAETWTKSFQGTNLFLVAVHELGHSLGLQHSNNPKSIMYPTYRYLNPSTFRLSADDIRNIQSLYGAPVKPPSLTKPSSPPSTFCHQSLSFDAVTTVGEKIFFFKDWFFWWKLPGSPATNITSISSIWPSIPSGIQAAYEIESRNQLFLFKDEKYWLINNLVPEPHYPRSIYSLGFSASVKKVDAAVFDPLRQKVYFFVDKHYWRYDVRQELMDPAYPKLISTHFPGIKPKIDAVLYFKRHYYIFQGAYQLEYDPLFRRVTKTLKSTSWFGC

Compound	Ki (ADAMTS-5) [nM]	effect on atherosclerotic plaque (MMP-12 [1])	Ki (hMMP-1) [nM]	Ki (hMMP-3) [nM]	Ki (hMMP-14) [nM]	Ki (hMMP-9) [nM]	Ki (hMMP-7) [nM]	Ki (hMMP-10) [nM]	Ki (hMMP-2) [nM]	Ki (hMMP-8) [nM]	Ki (hMMP-13) [nM]	Ki (hMMP-12) [nM]	Ki (TACE) [nM]	loss of potency toward MMP-10 compared with RXP470.1 (hMMP-10; relative to RXP470.1)	loss of potency toward MMP-13 compared with RXP470.1 (hMMP-13; relative to RXP470.1)	loss of potency (drop in affinity) toward MMP-9 compared with RXP470.1 (hMMP-9; factor relative to RXP470.1)	difference in potency towards MMP-12, factor relative to probe 1 (hMMP-12; relative to probe 1)	probe co-localization with F4/80 positive cells (MMP-12 [2]; aneurysmal carotid artery sections)	probe signal co-localization with MMP-12 (MMP-12 [2]; aneurysmal left carotid artery sections)
NC(=O)[C@H](CCC(=O)O)NC(=O)[C@H](CCC(=O)O)NC(=O)[C@H](Cc1cc(-c2ccc(-c3cccc(Cl)c3)cc2)no1)CP(=O)(O)c1ccc(Br)cc1 [RXP470.1, reference compound]	6100 ± 100	reduces atherosclerotic plaque area and promotes a fibrous plaque phenotype	> 10000	80 ± 2	150 ± 21	170 ± 50	518 ± 40	17 ± 20	52 ± 4	120 ± 40	11 ± 10	0.26	> 10000	–	–	–	–	–	–
CC[N+]1=C(/C=C/C=C/C=C2/N(CCCCCC(=O)NCCCOCCOCCOCCCNC(=O)[C@H](CCC(=O)O)NC(=O)[C@H](CCC(=O)O)NC(=O)[C@H](Cc3cc(-c4ccc(-c5cccc(Cl)c5)cc4)no3)CP(=O)(O)c3ccc(Br)cc3)c3ccc4c(S(=O)(=O)[O-])cc(S(=O)(=O)O)cc4c3C2(C)C)C(C)(C)c2c1ccc1c(S(=O)(=O)O)cc(S(=O)(=O)O)cc21 [probe 1]	1490 ± 129	–	> 10000	31 ± 2	1130 ± 61	4167 ± 41	1623 ± 13	71 ± 50	973 ± 63	2070 ± 22	74 ± 70	0.9	> 10000	less than ten times	less than ten times	–	–	–	–
CC[N+]1=C(/C=C/C=C2/N(CCCCCC(=O)NCCCOCCOCCOCCCNC(=O)[C@H](CCC(=O)O)NC(=O)[C@H](CCC(=O)O)NC(=O)[C@H](Cc3cc(-c4ccc(-c5cccc(Cl)c5)cc4)no3)CP(=O)(O)c3ccc(Br)cc3)c3ccc(S(=O)(=O)[O-])cc3C2(C)C)C(C)(C)c2cc(S(=O)(=O)O)ccc21 [probe 2]	> 10000	–	7212 ± 66	188 ± 22	802 ± 58	8760 ± 50	1850 ± 71	–	1070 ± 18	1440 ± 35	136 ± 15	6.1 ± 0.1	> 10000	–	–	50	7	co-localized	partially co-localized
